Experimental data as given in BindingDB's records for doi:10.1046/j.1471-4159.1997.69051810.x (Janssen Research Foundation, 1997).

Legend:
[1] = biological target: 5-hydroxytryptamine receptor 4 (Cavia porcellus, UniProt O70528)
[2] = biological target: 5-hydroxytryptamine receptor 4 (Homo sapiens, UniProt Q13639)
5-hydroxytryptamine receptor 4 (Homo sapiens, UniProt Q13639), sequence (Q13639 whole entry): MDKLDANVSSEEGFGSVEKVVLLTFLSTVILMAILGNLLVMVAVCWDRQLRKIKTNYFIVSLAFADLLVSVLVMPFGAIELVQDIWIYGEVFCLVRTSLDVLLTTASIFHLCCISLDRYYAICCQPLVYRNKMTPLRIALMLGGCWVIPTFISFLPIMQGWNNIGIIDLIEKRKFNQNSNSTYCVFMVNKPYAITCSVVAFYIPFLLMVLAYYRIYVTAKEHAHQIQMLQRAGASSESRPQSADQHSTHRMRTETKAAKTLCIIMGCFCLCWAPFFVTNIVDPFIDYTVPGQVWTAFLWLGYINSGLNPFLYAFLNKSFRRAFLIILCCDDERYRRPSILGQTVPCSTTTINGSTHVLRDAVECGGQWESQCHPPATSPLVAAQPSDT

5-hydroxytryptamine receptor 4 (Cavia porcellus, UniProt O70528), sequence (O70528 whole entry): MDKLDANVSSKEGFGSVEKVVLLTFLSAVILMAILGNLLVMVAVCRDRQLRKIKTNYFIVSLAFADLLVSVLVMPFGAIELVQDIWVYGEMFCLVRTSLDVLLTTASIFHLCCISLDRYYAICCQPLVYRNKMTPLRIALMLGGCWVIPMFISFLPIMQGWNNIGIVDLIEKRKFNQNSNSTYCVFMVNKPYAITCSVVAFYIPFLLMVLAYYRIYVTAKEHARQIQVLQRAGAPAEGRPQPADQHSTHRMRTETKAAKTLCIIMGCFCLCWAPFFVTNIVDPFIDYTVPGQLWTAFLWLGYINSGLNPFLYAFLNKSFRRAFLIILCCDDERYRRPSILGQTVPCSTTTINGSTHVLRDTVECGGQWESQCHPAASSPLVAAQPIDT

## CN1C2CCC1CC(OC(=O)c1c[nH]c3ccccc13)C2 (centres undefined)
[1]
  Ki: 200 nM

## CCCCN1CCC(COC(=O)c2cc(Cl)c(N)c3c2OCCO3)CC1 [CAS_121881]
[2]
  Ki: 0.1 nM
[1]
  Ki: 0.07 nM

## Cn1cc(C(=O)OCC2CCN(CCNS(C)(=O)=O)CC2)c2ccccc21 [GR 113808]
[2]
  Ki: 0.25 nM
[1]
  Ki: 0.39 nM

## COc1[nH]c2ccc(F)cc2c1C(=O)OCC1CCN(CCNS(C)(=O)=O)CC1 [GR-125487]
[2]
  Ki: 0.15 nM
[1]
  Ki: 0.19 nM

## COc1ccc2[nH]cc(CCN)c2c1 [tryptamine, 5-Methoxy]
[2]
  Ki: 1000 nM
[1]
  Ki: 251 nM
